This is an account of results in patent US6613795B2, “Enantiomerically pure basic arylcycloalkylhydroxycarboxylic esters, processes for their preparation and their use in medicaments” (priority 1996, dated 2003).

One test relates to M2. In words: functional experiments on guinea pig atrium (GPA). Type of test: cell-based.
The next test has as its target T1, M2 receptors (Rattus norvegicus, UniProt P10980).
T1 construct: M2 receptors from preparations of rat hearts; from tissue; host or cells: rat heart preparations
T1 sequence (P10980 1-466): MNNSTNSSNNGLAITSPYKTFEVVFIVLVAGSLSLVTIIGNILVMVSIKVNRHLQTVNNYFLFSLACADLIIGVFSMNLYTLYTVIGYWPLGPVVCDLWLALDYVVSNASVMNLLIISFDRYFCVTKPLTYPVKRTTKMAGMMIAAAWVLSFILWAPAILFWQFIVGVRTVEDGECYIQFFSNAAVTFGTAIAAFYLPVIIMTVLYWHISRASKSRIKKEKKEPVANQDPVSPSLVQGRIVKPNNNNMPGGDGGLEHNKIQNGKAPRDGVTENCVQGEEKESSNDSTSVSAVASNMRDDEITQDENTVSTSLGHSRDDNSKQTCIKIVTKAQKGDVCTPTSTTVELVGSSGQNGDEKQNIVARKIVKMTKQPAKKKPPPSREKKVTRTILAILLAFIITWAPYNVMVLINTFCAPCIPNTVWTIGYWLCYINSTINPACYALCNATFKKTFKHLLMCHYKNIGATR
In words: [3H]-NMS binding studies on M2 receptors from preparations of rat hearts. From the text: c pKi values from [^3H]-NMS binding studies on M2 receptors from preparations of rat hearts

A word on the Ki: it is a measure of affinity in units of concentration, obtained from inhibition or displacement. A high value points to lower affinity.

With `C[N+]1(C)CC[C@@H](OC(=O)[C@](O)(c2ccccc2)C2CCCC2)C1` [Ic, (3R,2′R)-3-[(cyclopentylhydroxyphenylacetyl)oxy]-1,1-dimethylpyrrolidinium iodide], the “PA2 GPA (M2)” value in the test with M2 is 9.43.
In the case of `C[N+]1(C)CC[C@H](OC(=O)[C@@](O)(c2ccccc2)C2CCCC2)C1` [Ia, (3S,2′S)-3-[(cyclopentylhydroxyphenylacetyl)oxy]-1,1-dimethylpyrrolidinium iodide], the “PA2 GPA (M2)” value with M2 turned out to be 7.92. Further, the affinity on M2 receptors corresponds to a Ki of 13.2 nM.
For the compound `C[N+]1(C)CC[C@H](OC(=O)[C@](O)(c2ccccc2)C2CCCC2)C1` [Ib, (3S,2′R)-3-[(cyclopentylhydroxyphenylacetyl)oxy]-1,1-dimethylpyrrolidinium iodide], on M2 receptors, the Ki was 0.182 nM.
For the compound `C[N+]1(C)CC[C@@H](OC(=O)[C@@](O)(c2ccccc2)C2CCCC2)C1` [Id, (3R,2′S)-3-[(cyclopentylhydroxyphenylacetyl)oxy]-1,1-dimethylpyrrolidinium iodide], in the test on M2, the “PA2 GPA (M2)” value is 8.69. The compound further showed a Ki on M2 receptors of 1 nM.
